Laboratory results: patent US11912679B2, “Aryl alkynamide derivatives” (Astellas Pharma, Inc., priority 2022, dated 2024)
Where a name gives a salt, the structure may show the parent alone. Values belong to the molecule of their own block, whether it stands above or below them.

Tested on: IRF pathway of THP-1
Assay: Test on the activity of IRF pathway of THP-1 (THP1-Dual reporter cells stimulated with 2'3'-cGAMP)
Type: cell-based
Details: Homo sapiens, PMA-treated, 2'3'-cGAMP 5 ug/mL, QUANTI-Luc readout, read-out: IC50 of inhibition of the activity of IRF pathway
Experimental: 0.3 uM of PMA (phorbol myristate acetate, SIGMA, P1585) was added to THP1-Dual™ cells (NF-κB-SEAP IRF-Luc Reporter Monocytes, Invivogen, thpd-nfis), and the cells were cultured at 37° C. for 1 day in RPMI1640 with 10% Fetal Bovine Serum (FBS). A compound with a known concentration was added, and the cells were incubated at room temperature for 1 hour. Mammalian (non-canonical) CDN, cyclic [G(2′,5′)pA(3′,5′)p] (2′3′-cGAMP, Invivogen, tlrl-nacga23) was added to a final concentration of 5 ug/mL, and the cells were cultured at 37° C. On the following day, QUANTI-Luc™ (Secreted luciferase detection medium, Invivogen, rep-qlc) was added to the culture solution and the activity of IRF pathway was measured using a microplate reader. The inhibition ratio at each concentration was determined, where the activity of IRF pathway with no addition of the test compound or 2′3′-cGAMP was defined as 100% inhibition and the activity of IRF pathway with no addition of the test compound and with addition of 2′3′-cGAMP was defined as 0% inhibition. The IC50 value was calculated by sigmoid […] model non-linear regression analysis.

SMILES: CN(CCO)C(=O)C#Cc1ccc(-c2ccccc2OC(F)(F)F)c(C(F)(F)F)c1 [Example 76]
- IC50: 76 nM

SMILES: O=C(C#Cc1ccc(-c2ccccc2OC(F)(F)F)c(C(F)(F)F)c1)N1CC(O)C1 [Example 77]
- IC50: 91 nM

SMILES: O=C(C#Cc1ccc(-c2ccccc2OC(F)(F)F)c(C(F)(F)F)c1)N1CC(O)(CO)C1 [Example 78]
- IC50: 51 nM

SMILES: O=C(C#Cc1ccc(-c2ccc(OC(F)F)cc2)c(C(F)(F)F)c1)N1C[C@@H](O)[C@@H](O)C1 [Example 79]
- IC50: 185 nM

SMILES: O=C(C#Cc1ccc(-c2ccc(OC(F)F)cc2)c(C(F)(F)F)c1)N[C@H]1COC[C@H]1O [Example 80]
- IC50: 539 nM

SMILES: O=C(C#Cc1ccc(-c2cccc(OC(F)F)c2)c(C(F)(F)F)c1)N[C@@H]1COC[C@@H]1O [Example 81]
- IC50: 37 nM

SMILES: O=C(C#Cc1ccc(-c2cccc(OC(F)F)c2)c(C(F)(F)F)c1)N[C@H]1COC[C@H]1O [Example 82]
- IC50: 239 nM

SMILES: O=C(C#Cc1ccc(-c2ccc(OC(F)F)cc2)c(C(F)(F)F)c1)N[C@@H]1COC[C@@H]1O [Example 83]
- IC50: 430 nM

SMILES: O=C(C#Cc1ccc(-c2ccc(Cl)cc2)c(C(F)(F)F)c1)N1C[C@@H](O)[C@@H](O)C1 [Example 84]
- IC50: 435 nM

SMILES: O=C(C#Cc1cnc(-c2ccc(C(F)(F)F)cc2)c(C(F)(F)F)c1)N1C[C@@H](O)[C@@H](O)C1 [Example 85]
- IC50: 224 nM

SMILES: O=C(C#Cc1cnn(-c2ccc(F)cc2)c1C(F)(F)F)N1C[C@@H](O)[C@@H](O)C1 [Example 86]
- IC50: 8040 nM

SMILES: O=C(C#Cc1ccc(-c2ccccn2)cc1)N(CCO)c1ccccc1 [Example 87, N-(2-hydroxyethyl)-N-phenyl-3-[4-(pyridin-2-yl)phenyl]prop-2-ynamide]
- IC50: 1610 nM

SMILES: CN1CCN(C(=O)C#Cc2ccc(-c3ccncc3)cc2)CC1 [Example 88, 1-(4-methylpiperazin-1-yl)-3-[4-(pyridin-4-yl)phenyl]prop-2-yn-1-one]
- IC50: 5550 nM

SMILES: O=C(C#Cc1ccc(-c2cccnc2)cc1)N(CCO)c1ccccc1 [Example 89]
- IC50: 1690 nM

SMILES: O=C(C#Cc1ccc(-c2ccccc2)c(C(F)(F)F)c1)Nc1cccc(C(=O)O)c1 [Example 90, 3-({3-[2-(trifluoromethyl)[1,1′-biphenyl]-4-yl]prop-2-ynoyl}amino)benzoic acid]
- IC50: 471 nM

SMILES: O=C(O)CCN1CCN(C(=O)C#Cc2ccc(-c3ccccc3)c(C(F)(F)F)c2)CC1 [Example 91, 3-(4-{3-[2-(trifluoromethyl)[1,1′-biphenyl]-4-yl]prop-2-ynoyl}piperazin-1-yl)propanoic acid monohydrochloride]
- IC50: 600 nM

SMILES: O=C(O)c1ccc2c(c1)N(C(=O)C#Cc1ccc(-c3ccccc3)c(C(F)(F)F)c1)CC2 [Example 92, 1-{3-[2-(trifluoromethyl)[1,1′-biphenyl]-4-yl]prop-2-ynoyl}-2,3-dihydro-1H-indole-6-carboxylic acid]
- IC50: 767 nM

SMILES: O=C(O)CCCN1CCN(C(=O)C#Cc2ccc(-c3ccccc3)c(C(F)(F)F)c2)CC1 [Example 93]
- IC50: 919 nM

SMILES: O=C(O)C1CCN(C(=O)C#Cc2ccc(-c3ccccc3)c(C(F)(F)F)c2)C1 (stereo not shown) [Example 94]
- IC50: 11800 nM

SMILES: CN1CCN(C(=O)C#Cc2cnn(-c3ccc(C(F)(F)F)cc3)c2)CC1 [Example 95, 1-(4-methylpiperazin-1-yl)-3-{1-[4-(trifluoromethyl)phenyl]-1H-pyrazol-4-yl}prop-2-yn-1-one]
- IC50: 1440 nM

SMILES: O=C(C#Cc1ccc(-c2ccccc2)c(CN2CCCCC2)c1)N(C[C@@H](O)CO)c1ccccc1 [Example 96, N-[(2R)-2,3-dihydroxypropyl]-N-phenyl-3-{2-[(piperidin-1-yl)methyl][1,1′-biphenyl]-4-yl}prop-2-ynamide]
- IC50: 80 nM

SMILES: O=C(C#Cc1ccc(-c2ccccc2)c(CN2CCOCC2)c1)NC[C@H](O)CO [Example 97]
- IC50: 4610 nM

SMILES: COC1CCN(Cc2cc(C#CC(=O)NC[C@H](O)CO)ccc2-c2ccccc2)CC1 [Example 98]
- IC50: 2570 nM

SMILES: N[C@H]1CCN(C(=O)C#Cc2ccc(-c3ccccc3)c(C(F)(F)F)c2)C1 [Example 100, 1-[(3S)-3-aminopyrrolidin-1-yl]-3-[2-(trifluoromethyl)[1,1′-biphenyl]-4-yl]prop-2-yn-1-one monooxalate]
- IC50: 125 nM

Second part, the molecule after the results:

- IC50: 190 nM
SMILES: N[C@@H]1CCN(C(=O)C#Cc2ccc(-c3ccccc3)c(C(F)(F)F)c2)C1 [Example 101]

- IC50: 842 nM
SMILES: CN1CC2(C1)CN(C(=O)C#Cc1ccc(-c3ccccc3)cc1)C2 [Example 102]

- IC50: 402 nM
SMILES: O=C(C#Cc1ccc(-c2ccccc2)c(C(F)(F)F)c1)N1CC[C@H](O)C1 [Example 103]

- IC50: 1790 nM
SMILES: O=C(C#Cc1ccc(C2CCOCC2)c(C(F)(F)F)c1)N1C[C@@H](O)[C@@H](O)C1 [Example 104]

- IC50: 620 nM
SMILES: CC(C)(C)n1cc(-c2ccc(C#CC(=O)N3C[C@@H](O)[C@@H](O)C3)cc2C(F)(F)F)cn1 [Example 105]

- IC50: 358 nM
SMILES: O=C(C#Cc1ccc(-c2ccccc2)c(C(F)(F)F)c1)N[C@H]1C[C@@H](O)[C@@H](O)C1 [Example 106, N-[(1r,3R,4S)-3,4-dihydroxycyclopentyl]-3-[2-(trifluoromethyl)[1,1′-biphenyl]-4-yl]prop-2-ynamide]

- IC50: 489 nM
SMILES: O=C(C#Cc1ccc(-c2ccccc2)c(C(F)(F)F)c1)N[C@@H]1C[C@@H](O)[C@@H](O)C1 [Example 107]

- IC50: 263 nM
SMILES: O=C(C#Cc1ccc(-c2ccccc2)c(C(F)(F)F)c1)N1CC[C@@H](O)C1 [Example 108]

- IC50: 112 nM
SMILES: O=C(C#Cc1ccc(-c2ccccc2C(F)(F)F)c(Cl)c1)N1C[C@@H](O)[C@@H](O)C1 [Example 109]

- IC50: 1210 nM
SMILES: CN(C)c1cc(C#CC(=O)N2C[C@@H](O)[C@@H](O)C2)ccc1-c1ccccc1C(F)(F)F [Example 110]

- IC50: 1050 nM
SMILES: COc1cc(C#CC(=O)N2C[C@@H](O)[C@@H](O)C2)ccc1-c1ccccc1C(F)(F)F [Example 111]

- IC50: 887 nM
SMILES: Cc1cc(C#CC(=O)N2C[C@@H](O)[C@@H](O)C2)ccc1-c1ccccc1C(F)(F)F [Example 112]

- IC50: 698 nM
SMILES: O=C(C#Cc1ccc(-c2ccccc2)c(OC(F)F)c1)NC[C@H](O)CO [Example 113]

- IC50: 339 nM
SMILES: O=C(C#Cc1ccc(-c2ccccc2)c(C(F)(F)F)c1)NCCNS(=O)(=O)CCO [Example 114]

- IC50: 4940 nM
SMILES: O=C(C#Cc1cn(-c2ccc(F)cc2)c(C(F)(F)F)n1)NC[C@H](O)CO [Example 115]

- IC50: 428 nM
SMILES: O=C(C#Cc1cnc(-c2ccccc2C(F)(F)F)cn1)N1C[C@@H](O)[C@@H](O)C1 [Example 116]

- IC50: 2830 nM
SMILES: O=C(C#Cc1ccc(-c2ccccc2C(F)(F)F)c2ncccc12)N1C[C@@H](O)[C@@H](O)C1 [Example 117]

- IC50: 838 nM
SMILES: O=C(C#Cc1ccc(-c2ccccc2C(F)(F)F)nn1)N1C[C@@H](O)[C@@H](O)C1 [Example 118]

- IC50: 5260 nM
SMILES: NC(=O)c1cc(C#CC(=O)N2C[C@@H](O)[C@@H](O)C2)ccc1-c1ccccc1C(F)(F)F [Example 119, 4-{3-[(3R,4S)-3,4-dihydroxypyrrolidin-1-yl]-3-oxoprop-1-yn-1-yl}-2′-(trifluoromethyl)[1,1′-biphenyl]-2-carboxamide]

- IC50: 324 nM
SMILES: N#Cc1cc(C#CC(=O)N2C[C@@H](O)[C@@H](O)C2)ccc1-c1ccccc1 [Example 120]

- IC50: 7780 nM
SMILES: O=C(C#Cc1ccc(-c2ccccc2)c(O)c1)N1C[C@@H](O)[C@@H](O)C1 [Example 121]

- IC50: 3100 nM
SMILES: COc1ncc(-c2ccc(C#CC(=O)N3C[C@@H](O)[C@@H](O)C3)cc2C(F)(F)F)cn1 [Example 122]
